# Like-named read-outs stand apart in the source and are kept apart here.
# What was measured:
# [1] = test system: BGC-803; test: MTT cytotoxicity assay, BGC-803 cells; format: cell-based; settings: BGC803, Table 2, read-out: IC50 (mol/L) BGC-803
# Protocol: (§1) Experiment 1. Cytotoxicity Screening Assay at Cell Level of Compounds of this Invention
# (§2) Tumor cells at log phase were incubated on 96-well plates at a density of 1˜1.2×10^4 cells/ml, 100 μl/well. 24 h later, treatment cells were exposed to the tested agents at different concentrations. Each tested agents had 4˜5 doses, and each dose had at least 3 parallel wells. Control cells were exposed to solvents in the same volume with treat agents. Cells were cultured at 37° C. in a cell incubator with 5% CO2 and 95% air atmosphere. After 4 days of culture, the incubation medium was removed, then 200 μl 0.2% MTT (prepared by RPMI 1640) was added to each well and the plates were incubated at 37° C. for 4 hours. The supernatant was discarded and dissolved the resulting formazen product with 200 μl DMSO in each well. The absorbance at a reference wavelength of 450 nm and a test wavelength of 570 nm was read on a microplate reader after tenderly shaking. Calculated drug inhibitory rate using the following equation and IC50, taking solvent exposure tumor cells as control cells.
# [2] = test system: MCF-7/D: adriamycin-resistant subline of the human mammary adenocarcinoma cell strain MCF-7; test: MTT cytotoxicity assay, MCF-7/D cells; format: cell-based; settings: Homo sapiens, MCF7, Table 2, read-out: IC50 (mol/L) MCF-7/D
# Protocol: as §1, §2
# [3] = test system: Lewis lung cancer; test: Inhibitory activity on mice Lewis lung cancer
# [4] = test system: human mammary adenocarcinoma cell strain MCF-7; test: MTT cytotoxicity assay, MCF-7 cells; format: cell-based; settings: Homo sapiens, MCF7, Table 2, read-out: IC50 (mol/L) MCF-7
# Protocol: as §1, §2
# [5] = test system: human ovarian cancer A2780-nude mice-xenograft tumor; test: Growth inhibition on A2780-nude mice-xenograft tumor
# Text: (§3) Genera: BALB/c (nu-nu) nude mice
# (§4) After one-week accommodation, animals were given subcutaneous implantation of the human lung adenocarcinoma A549 or the human ovarian cancer A2780 or the human gastric carcinoma BGC-823 cells. Animals were grouped randomly (d0) when the tumors reached 100-300 mm^3. […] Animal weights and tumor measurements were taken every […] and recorded. At the end of the study (d30 or d35), nude mice were euthanized and weighed. After the animals were sacrificed, tumor tissue was cut and weighed. Tumor volume was determined using the following equation: […]
# [6] = test system: KB/V: the vincristine-resistant substrain of KB; test: cells; format: cell-based, human; settings: Homo sapiens, KBV, 96 h; Table 1; MTT, 4 days of culture; read-out: IC50(M) KB/V
# Protocol: as §1, §2
# [7] = test system: A549/Taxol: the taxol-resistant substrain of A549; test: cells; format: cell-based, human; settings: Homo sapiens
# Protocol: as §1, §2
# [8] = test system: human gastric carcinoma BGC-823 nude mice-xenograft tumor; test: Growth inhibition on BGC-823-nude mice-xenograft tumor
# Text: as §3, §4
# [9] = test system: A549: the human lung adenocarcinoma cell strain; test: cells; format: cell-based; settings: Homo sapiens
# Protocol: as §1, §2
# [10] = test system: KB: the human oral epithelium cancer cell strain; test: cells; format: cell-based; settings: Homo sapiens, KB
# Protocol: as §1, §2
# [11] = test system: HCT-8; test: MTT cytotoxicity assay, HCT-8 cells; format: cell-based; settings: Homo sapiens, HCT-8, Table 2, read-out: IC50 (mol/L) HCT-8
# Protocol: as §1, §2
# [12] = test system: BGC-823; test: MTT cytotoxicity assay, BGC-823 cells; format: cell-based, human; settings: Homo sapiens, BGC-823, Table 2, read-out: IC50 (mol/L) BGC-823
# Protocol: as §1, §2
# [13] = test system: human lung adenocarcinoma A549-nude mice-xenograft tumor; test: Growth inhibition on A549-nude mice-xenograft tumor
# Text: as §3, §4
smiles,measurement,setting,value
"CC(=O)O[C@H]1C(=O)[C@@]2(C)[C@H]([C@H](OC(=O)c3ccccc3)[C@]3(O)C[C@H](OC(=O)[C@H](O)[C@@H](NC(=O)c4ccccc4)c4ccccc4)C(C)=C1C3(C)C)[C@]1(OC(C)=O)CO[C@@H]1C[C@@H]2O [taxol, paclitaxel, reference compound]",IC50,[1],2.5 nM
same,IC50,[2],330 nM
same,Inhibition (%),[3]; 10 × 6 mg/kg,31.64%
same,Tumor weight (g) Average,[3]; 10 × 6 mg/kg,1.96 g
same,Body weight (g) end,"[3]; 10 × 6 mg/kg, end",19.4 g
same,Body weight (g) initial,"[3]; 10 × 6 mg/kg, initial",19.7 g
same,"inhibition of tumor growth, conclusion in words","[3]; Lewis lung cancer, comparison with taxol",can inhibit the growth
same,IC50,[4],0.41 nM
same,RTV,[5]; 30 × 4 mg/kg i.p.,4.4
same,T/C (%),[5]; 30 × 4 mg/kg i.p.,45.4%
same,Tv x ± SD d0,"[5]; 30 × 4 mg/kg i.p., d0 (first administration)",137.9 ± 21.0
same,Tv x ± SD dn,"[5]; 30 × 4 mg/kg i.p., dn: 30 days after the first administration",604.8 ± 525.0
same,Body weight (g) end,"[5]; 30 × 4 mg/kg i.p., end",23.3 g
same,Body weight (g) initial,"[5]; 30 × 4 mg/kg i.p., initial",22.7 g
same,"inhibition of tumor growth, conclusion in words","[5]; A2780 nude mice-xenograft tumor, comparison with taxol",can inhibit the growth
same,IC50,[6],9.59e-07 M
same,IC50,"[7]; A549/Taxol, 96 h, read-out: IC50(M) A549/Taxol, Table 1, MTT, 4 days of culture",> 1e-06 M
same,IC50,"[7]; A549, Table 2, MTT assay, read-out: IC50 (mol/L) A549/T",2.6e-08 M
same,RTV,[8]; 30 × 3 mg/kg i.p.,0.66
same,T/C (%),[8]; 30 × 3 mg/kg i.p.,2.41%
same,Tv x ± SD d0,"[8]; 30 × 3 mg/kg i.p., d0",98.8 ± 47.35
same,Tv x ± SD dn,"[8]; 30 × 3 mg/kg i.p., dn 30 days after the first administration",104.9 ± 144.9
same,Body weight (g) end,"[8]; 30 × 3 mg/kg i.p., end",23.9 g
same,Body weight (g) initial,"[8]; 30 × 3 mg/kg i.p., initial",25.2 g
same,"inhibition of tumor growth, conclusion in words","[8]; BGC-823 nude mice-xenograft tumor, comparison with taxol",can inhibit the growth
same,IC50,"[9]; A549, 96 h, Table 1, MTT, 4 days of culture, read-out: IC50(M) A549",2.32e-07 M
same,IC50,"[9]; A549, Table 2, MTT assay, read-out: IC50 (mol/L) A549",5.2e-09 M
same,IC50,"[10]; 96 h, Table 1, MTT, 4 days of culture, read-out: IC50(M) KB",8.66e-09 M
same,IC50,"[10]; Table 2, MTT assay, read-out: IC50 (mol/L) KB",1.8e-09 M
same,IC50,[11],0.73 nM
same,IC50,[12],6.3 nM
same,RTV,[13]; 30 × 3 mg/kg,4.6
same,T/C (%),[13]; 30 × 3 mg/kg,38.9%
same,Body weight (g) end,"[13]; 30 × 3 mg/kg, end",24.3 g
same,Tv x ± SD end,"[13]; 30 × 3 mg/kg, end",2152 ± 474
same,Body weight (g) initial,"[13]; 30 × 3 mg/kg, initial",22.0 g
same,"inhibition of tumor growth, conclusion in words","[13]; A549 nude mice-xenograft tumor, comparison with taxol",can inhibit the growth

# Reference: patent US20110039921A1 (priority 2007, published 2011)
